The results in this text go back to patent US20220169639A1 (priority 2018, published 2022).

Assay [1] deals with HBV (HBsAg) in HBV-infected PHH. Nature of the assay: Cryopreserved primary human hepatocytes (PHH) HBV infection assay, extracellular HBsAg (CLIA). As to conditions: Hepatitis B virus, Hepatocyte, 216 h, read-out: HBsAg IC50. The assay is classed as cell-based. As for the experimental part: This assay is used to confirm the anti-HBV effect of the compounds in HBV PHH infection assay. Cryopreserved PHH (BioreclamationIVT, Lot YJM) was thawed at 37° C. and gently transferred into pre-warmed InVitroGRO HT medium (BioreclamationIVT, Cat. S03317). The mixture was centrifuged at 70 relative centrifugal force (RCF) for 3 minutes at RT, and the supernatant was discarded. Pre-warmed InVitroGRO CP medium (BioreclamationIVT, Cat #S03316) was added to the cell pellet to gently re-suspend cells. The cells were seeded at the density of 5.8×10^4 cells per well to collagen I coated 96-well plate (Gibco, Cat. A1142803) with the InVitroGRO CP medium. All plates were incubated at 37° C. with 5% CO2 and 85% humidity.
At 20 hours after plating, the medium was changed to PHH culture medium (Dulbecco's Modified Eagle Medium (DMEM)/F12 (1:1) (Gibco, Cat. 11320-033), 10% fetal bovine serum (Gibco Cat. 10099141), 100 U/mL penicillin, 100 μg/mL streptomycin (Gibco, Cat. 151401-122), 5 ng/mL human epidermal growth factor (Invitrogen Cat. PHG0311L), 20 ng/mL dexamethasone (Sigma, Cat. D4902) and 250 ng/mL human recombinant insulin (Gibco, Cat. 12585-014)). And the cells were incubated at 37° C. with 5% CO2 and 85% humidity for 4 hours. The medium was then changed to pre-warmed PHH culture medium containing 4% polyethylene glycol (PEG) MW8000 (Sigma, Cat. P1458-50ML) and 1% DMSO (Sigma, Cat. D2650). 5.8×10^6 genomic equivalents of HBV were added into the medium.
At 24 hours post-infection, the cells were gently washed with PBS and refreshed with PHH culture medium supplemented with 1% DMSO, and 0.25 mg/mL Matrix gel (Corning, Cat. 356237) at 200 μL per well. All plates were immediately placed in at 37° C. CO2 incubator. 24 hours later, serial dilutions of compounds made with DMSO were further diluted with the same culture medium (PHH culture medium supplemented with 1% DMSO and 0.25 mg/mL Matrix gel as described above) before they were added to the cells to reach desired final compound concentrations and 1% DMSO concentration. The medium containing the compounds were refreshed every three days.
At 9 days post-compound treatment, extracellular HBsAg level were measured with Chemiluminescence Immuno Assay (CLIA) kit (Autobio, HBsAg Quantitative CLIA). Extracellular HBV DNA was extracted by MagNA Pure 96 system (Roche) and then determined
HBsAg IC50 and HBV DNA IC50 values were derived from the dose-response curve using 4 parameter logistic curve fit method. The compounds of formula (I) have HBsAg IC50<20 μM, particularly <1 μM; and HBV DNA IC50<50 μM. Results of Cryopreserved PHH assay are given in TableBIO2.

The subject of assay [2] is HBeAg (surrogate marker for cccDNA) in HepDES19 cells. Nature of the assay: Engineered HepDES19 primary screen assay (HBeAg ELISA). It counts as cell-based, HBV. The following applies: Hepatitis B virus, 120 h, HBeAg in culture supernatant, 5 days incubation, read-out: IC50 (HepDES19 primary screen assay, inhibition of extracellular HBeAg level). The procedure, abridged:
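HepDES19 cells pre-induced by Tet withdrawal for 8 days, frozen, then seeded and dosed after 24 h with half-log compound dilutions (1% DMSO final). After 5 days at 37 °C, HBeAg measured by ELISA and viability by CCK-8; IC50 from 4-parameter logistic fit.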
Background: An ELISA detects its analyte on a solid surface through an enzyme-linked reagent.

As usually defined, the IC50 is the midpoint of a concentration-inhibition curve.

In the case of `O=C(O)C1CN(CCCOc2cc(C(F)(F)F)ccc2-c2cc(=O)c3cccc(Cl)c3o2)CCO1` (centres unmarked) [Example 018, 4-[3-[2-(8-chloro-4-oxo-chromen-2-yl)-5-(trifluoromethyl)phenoxy]propyl]morpholine-2-carboxylic acid], the IC50 in assay [1] came out at 5.13 µM; in assay [2], 0.41 µM.

Regarding `NC(=O)NCCCOc1cc(C(F)(F)F)ccc1-c1cc(=O)c2cccc(Cl)c2o1` [Example 157, 3-[2-(8-chloro-4-oxo-chromen-2-yl)-5-(trifluoromethyl)phenoxy]propylurea], the 50% inhibitory concentration (IC50) in assay [1] was found to be 3.4 µM; in assay [2], 4.15 µM.

For `O=C(O)[C@H]1CCN(CCCOc2cc(C(F)(F)F)ccc2-c2cc(=O)c3cccc(Cl)c3o2)C1` [Example 014, (3S)-1-[3-[2-(8-chloro-4-oxo-chromen-2-yl)-5-(trifluoromethyl)phenoxy]propyl]pyrrolidine-3-carboxylic acid], the half-maximal inhibitory concentration (IC50) is 5.08 µM in assay [1] and 0.37 µM in assay [2].

Consider `O=C(O)C1CCN(CCOc2cc(Br)ccc2-c2cc(=O)c3cccc(Cl)c3o2)CC1` [Example 022, 1-[2-[5-bromo-2-(8-chloro-4-oxo-chromen-2-yl)phenoxy]ethyl]piperidine-4-carboxylic acid], for which the IC50 came to 6.8 µM in assay [1] and 1.31 µM in assay [2].

As to `COc1cc(Cl)c2oc(-c3ccc(C(F)(F)F)cc3OCCCNC(=O)C(=O)O)cc(=O)c2c1` [Example 116], the IC50 was determined as 3.41 µM in assay [1] and 1.8 µM in assay [2].

Consider `O=C(O)[C@@H]1CCN(CC(O)COc2cc(Br)ccc2-c2cc(=O)c3cccc(Cl)c3o2)C1` (stereo partly drawn) [Example 165, (3R)-1-[3-[5-bromo-2-(8-chloro-4-oxo-chromen-2-yl)phenoxy]-2-hydroxy-propyl]pyrrolidine-3-carboxylic acid], for which the IC50 stood at 9.98 µM in assay [1] and 3.19 µM in assay [2].

Turning to `O=C(O)C(=O)NCC(O)COc1cc(C(F)(F)F)ccc1-c1cc(=O)c2cccc(Cl)c2o1` (centres unmarked) [Example 166, 2-[[3-[2-(8-chloro-4-oxo-chromen-2-yl)-5-(trifluoromethyl)phenoxy]-2-hydroxy-propyl]amino]-2-oxo-acetic acid], the concentration for half-maximal inhibition (IC50) in assay [1] was 3.03 µM; in assay [2], 1.57 µM.

With `O=C(O)C1CN(CCOc2cc(Br)ccc2-c2cc(=O)c3cccc(Cl)c3o2)C1` [Example 019, 1-[2-[5-bromo-2-(8-chloro-4-oxo-chromen-2-yl)phenoxy]ethyl]azetidine-3-carboxylic acid], the concentration for half-maximal inhibition (IC50) in assay [1] amounted to 7.13 µM; in assay [2], 0.57 µM.

Regarding `O=c1cc(-c2ccc(Br)cc2OCCN2CCS(=O)(=O)CC2)oc2c(Cl)cccc12` [Example 089, 2-[4-bromo-2-[2-(1,1-dioxo-1,4-thiazinan-4-yl)ethoxy]phenyl]-8-chloro-chromen-4-one], the results for the half-maximal inhibitory concentration (IC50) in assay [1] and in assay [2] were 5.81 µM and 1.94 µM, respectively.

As for `O=C(O)C(=O)NCCCOc1cc(C(F)(F)F)ccc1-c1cc(=O)c2cccc(Cl)c2o1` [Example 117], the IC50 turned out to be 1.9 µM in assay [1] and 2.16 µM in assay [2].

In the case of `NS(=O)(=O)CCNCCCOc1cc(C(F)(F)F)ccc1-c1cc(=O)c2cccc(Cl)c2o1` [Example 080, 2-[3-[2-(8-chloro-4-oxo-chromen-2-yl)-5-(trifluoromethyl)phenoxy]propylamino]ethanesulfonamide], the concentration for half-maximal inhibition (IC50) in assay [1] worked out at 4.02 µM; in assay [2] it was 3.14 µM.

With `O=C(O)C1CC(N2CCC(Oc3cc(Br)ccc3-c3cc(=O)c4cccc(Cl)c4o3)CC2)C1` (centres unmarked) [Example 131], the IC50 was determined as 5.05 µM in assay [1] and 5.86 µM in assay [2].

Take `O=C(O)[C@@H]1CCN(CCCOc2cc(Br)ccc2-c2cc(=O)c3cccc(Cl)c3o2)C1` [Example 005, (3R)-1-[3-[5-bromo-2-(8-chloro-4-oxo-chromen-2-yl)phenoxy]propyl]pyrrolidine-3-carboxylic acid]: the concentration for half-maximal inhibition (IC50) in assay [1] is 8.34 µM; in assay [2], 8.93 µM.
